# Source: paper PMC8865654, “Chiral evasion and stereospecific antifolate resistance in Staphylococcus aureus” (PLoS Computational Biology, 2022)
# Experiments:
# [1] = molecular target: T1, Staphylococcus aureus dihydrofolate reductase (SaDHFR), wild type (Staphylococcus aureus, UniProt P0A017); assay: X-ray crystal structure (ternary with R-27); enzyme inhibition assay with isolated t-NADPH; assay type: biochemical
# T1 construct: gene folA
# [2] = molecular target: T1, Staphylococcus aureus dihydrofolate reductase (SaDHFR), wild type; assay: X-ray crystal structure (re-refined from 4XEC data and newly deposited); also enzyme inhibition with t-NADPH pre-incubation (Fig E in S1 Text); assay type: binding
# T1 sequence (P0A017 2-159): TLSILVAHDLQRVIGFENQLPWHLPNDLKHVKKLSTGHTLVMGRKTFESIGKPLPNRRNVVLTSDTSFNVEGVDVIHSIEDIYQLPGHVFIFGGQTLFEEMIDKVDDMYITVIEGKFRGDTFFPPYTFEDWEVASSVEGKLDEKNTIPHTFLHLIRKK
SMILES,IC50 [1] [µM],X-ray crystal structure (re-refined from 4XEC data and newly deposited); also en [2]
NC(=O)C1=CN2[C@@H]3O[C@H](COP(=O)(O)OP(=O)(O)OC[C@H]4O[C@@H](n5cnc6c(N)ncnc65)[C@H](OP(=O)(O)O)[C@@H]4O)[C@@H](O)[C@H]3O[C@@H]2CC1 [t-NADPH],111 ± 6,–
CCc1nc(N)nc(N)c1C#C[C@H](C)c1cc(OC)cc(-c2ccncc2)c1 [R-27],–,the PDB ID for R-27:t-NADPH:SaDHFR is 7T7S
